Test results as given in ChEMBL document CHEMBL1135885, “Designing small, nonsugar activators of antithrombin using hydropathic interaction analyses” (J Med Chem, 2002).

Experiments:
[1] = The equilibrium dissociation constant was measured experimentally for the compounds interaction with antithrombin.; type: ADME
[2] = The second order rate constant for uncatalysed inhibition of factor Xa by antithrombin was determined for the compound at […]
[3] = Equilibrium constants and K activator was determined.; type: ADME
[4] = delta f max at pH 6.0; type: ADME
[5] = delta f max at pH 7.4; type: ADME
[6] = Catalysed acceleration of antithrombin inhibition of factor Xa (K-uncat = 120 +/- 10 M-1.s-1)
[7] = The equilibrium dissociation constant antithrombin interaction was determined at pH 7.4; type: ADME

| Kd [1] [µM] | Kuncat [2] [M⁻¹ s⁻¹] | K act [3] [M⁻¹ s⁻¹] | Delta Fmax [4] [%] | Delta Fmax [5] [%] | Fold_increase [6] | Kd [7] [µM] | Kd [2] [µM] | Compound |
| --- | --- | --- | --- | --- | --- | --- | --- | --- |
| 10.5 | 120 |  |  |  |  |  |  | O=S(=O)(O)Oc1cc2c(c(OS(=O)(=O)O)c1)C[C@@H](OS(=O)(=O)O)[C@@H](c1ccc(OS(=O)(=O)O)c(OS(=O)(=O)O)c1)O2 |
|  |  | 45000 | 34 | 34 | 320 | 66 | 2 | CO[C@H]1O[C@H](COS(=O)(=O)O)[C@@H](OC2O[C@H](C(=O)O)[C@@H](OC3O[C@H](COS(=O)(=O)O)[C@@H](O)[C@H](O)[C@H]3NS(=O)(=O)O)[C@H](O)[C@H]2O)[C@H](OS(=O)(=O)O)[C@H]1NS(=O)(=O)O (stereo partly drawn) [HEPARIN TRISACCHARIDE DEF] |
